Patent US20240336900A1, “METHODS AND COMPOSITIONS RELATED TO MODIFIED METHYLTRANSFERASES AND ENGINEERED BIOSENSORS” (BOARD OF REGENTS, THE UNIVERSITY OF TEXAS SYSTEM, priority 2023, published 2024)

How the values were obtained:
[1] = target: T1, 4NB2.1 biosensor (Salmonella typhimurium, UniProt Q8ZR43, C134D/K63T/L66M/S137G); experiment: Dose response of the evolved 4NB2.1 biosensor to 4NB (fluorescence, RFU/OD); format: cell-based, Escherichia coli
T1 construct: expressed in transfected cells; host or cells: E. coli DH10B
Protocol: For sensor variant validation, the subcloned pReg-RamR vectors expressing the sensor variants were transformed into DH10B cells expressing Pramr-GFP. These cultures were then assayed, as described in Biosensor response assay, using eight different concentrations of the 4NB.
Glycerol stocks (20% glycerol) of strains containing the plasmids of interest were inoculated into 1 ml LB medium and grown overnight at 37° C. Twenty microliters of overnight culture was seeded into 900 μl LB medium containing ampicillin and chloramphenicol in a 2-ml 96-deep-well plate sealed with an AeraSeal film. Following growth at 37° C. and 250 r.p.m. for 2 h, cultures were induced with 100 μl of an LB medium solution containing appropriate antibiotics and the inducer molecule dissolved in 10 μl DMSO. Cultures were grown for an additional 4 h at 37° C. and 250 r.p.m. and subsequently centrifuged (3,500 g, 4° C., 10 min). Supernatant was removed, and cell pellets were resuspended in 1 ml PBS. The cell resuspension (100 μl) for each condition was transferred to a 96-well microtiter plate, from which the fluorescence (excitation, 485 nm; emission, 509 nm) and absorbance (600 nm) were measured using the Tecan Infinite M1000 plate reader.
Bar graphs, fluorescence and growth curves, dose-response functions were all plotted in Python 3.6.9 using Matplotlib. Dose-response curves and EC50 values were estimated by fitting to the Hill equation y=d+(a−d)xb(cb+xb)−1 (where y=output signal, b=Hill coefficient, x=ligand concentration, d=background signal, a=maximum signal and c=EC50), with the scipy.optimize.curve_fit library in Python.

[2] = target: T2, RamR (Salmonella typhimurium, UniProt Q8ZR43); experiment: Biosensor response assay, wild-type RamR with Pramr-GFP reporter; format: cell-based; details: pReg-RamR + Pramr-GFP, upon induction
T2 construct: expressed in transfected cells; host or cells: E. coli DH10B
Text: The wild-type RamR sensor was constitutively expressed on one plasmid (pReg-RamR) in parallel with another plasmid bearing the regulator's cognate promoter upstream of the sfGFP gene (Pramr-GFP). […] To better understand this promiscuous binding activity, norbelladine was docked within the ligand binding pocket of RamR using GNINA 1.0 […], and a conformational pose was identified whereby the phenol moiety of norbelladine forms hydrogen bonds with S137 and T85, while the catechol moiety forms a hydrogen bond with K63.
The pReg-RamR and Pramr-GFP plasmids were co-transformed into DH10B cells, which were then plated on LB agar plates containing appropriate antibiotics. Three separate colonies were picked for each transformation and were grown overnight. The following day, 20 μL of each culture was then used to inoculate six separate wells in a 2-mL 96-deep-well plate (Corning, P-DW-20-C-S) sealed with an AeraSeal film (Excel Scientific) containing 900 μL LB medium, one for each test ligand and a solvent control. […] One hundred microliters of the cell resuspension for each condition was transferred to a 96-well microtiter plate (Corning, 3904), from which the fluorescence (excitation, 485 nm; emission, 509 nm) and absorbance (600 nm) were measured using the Tecan Infinite M1000 plate reader.

T1 sequence (Q8ZR43 other isoform, or with tags, fused parts or gaps K63T/L66M/C134D/S137G): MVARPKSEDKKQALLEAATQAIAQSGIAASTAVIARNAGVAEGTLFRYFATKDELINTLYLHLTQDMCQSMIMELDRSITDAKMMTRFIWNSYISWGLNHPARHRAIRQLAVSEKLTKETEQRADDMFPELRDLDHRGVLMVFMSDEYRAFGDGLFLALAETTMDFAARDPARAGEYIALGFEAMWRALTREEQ
T2 sequence (Q8ZR43 2-193, added parts left off): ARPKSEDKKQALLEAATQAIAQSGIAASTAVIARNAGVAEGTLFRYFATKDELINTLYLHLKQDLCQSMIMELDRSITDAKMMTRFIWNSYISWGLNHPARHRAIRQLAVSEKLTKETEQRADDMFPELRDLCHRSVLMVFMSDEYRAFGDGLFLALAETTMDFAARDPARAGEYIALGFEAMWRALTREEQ

Structure (SMILES): COc1ccc(CNCCc2ccc(O)cc2)cc1O [4NB, 4-O'Methylnorbelladine]
- 4NB2.1 biosensor measurement ([1]; 1 uM 4NB supplemented into media): 200.81 RFU/OD
- 4NB2.1 biosensor measurement ([1]; 2.5 uM 4NB supplemented into media): 240.62 RFU/OD
- 4NB2.1 biosensor measurement ([1]; 5 uM 4NB supplemented into media): 395.69 RFU/OD
- 4NB2.1 biosensor measurement ([1]; 10 uM 4NB supplemented into media): 944.28 RFU/OD
- 4NB2.1 biosensor measurement ([1]; 25 uM 4NB supplemented into media): 5648.44 RFU/OD
- 4NB2.1 biosensor measurement ([1]; 50 uM 4NB supplemented into media): 21194.72 RFU/OD
- 4NB2.1 biosensor measurement ([1]; 100 uM 4NB supplemented into media): 43800.94 RFU/OD
- 4NB2.1 biosensor measurement ([1]; 250 uM 4NB supplemented into media): 64506.12 RFU/OD
- 4NB2.1 biosensor measurement ([1]; 500 uM 4NB supplemented into media): 67029.6 RFU/OD
- 4NB2.1 biosensor measurement ([1]; 1000 uM 4NB supplemented into media): 62040.21 RFU/OD
- EC50 ([1]; biosensor developed by directed evolution): 20 µM
- increase in fluorescence [2]: 3.8 fold

Structure (SMILES): Oc1ccc(CCNCc2ccc(O)c(O)c2)cc1 [norbelladine]
- increase in fluorescence [2]: 4.4 fold
